{"source": "patent US8993001B2", "about": "“Methods and compositions for treating feline hyperthyroidism” (Hill's Pet Nutrition, Inc., priority 2006, dated 2015)", "key": {"[1]": {"system": "cats diagnosed with hyperthyroidism", "assay": "Serum total T4 in hyperthyroid cats, six-week study (Example 1)", "assay_type": "in vivo, cat", "procedure": "A group of five cats diagnosed with hyperthyroidism was fed food B for six weeks. Another five cats diagnosed with hyperthyroidism were given 2.5 mg methimazole orally once a day for six weeks while they were fed food B. Eight cats diagnosed with hyperthyroidism were given 2.5 mg methimazole orally once a day for six weeks while they were fed a commercially available cat food. The thyroid hormone profiles and serum chemistries of all cats were measured at zero, two, four, and six weeks."}, "[2]": {"assay": "Serum creatinine in hyperthyroid cats, six-week study (Example 1)", "assay_type": "in vivo, cat", "procedure": "Food B1 and food B2 were mixed in a 1:1 ratio, thus resulting in food B. A group of five cats diagnosed with hyperthyroidism was fed food B for six weeks. Another five cats diagnosed with hyperthyroidism were given 2.5 mg methimazole orally once a day for six weeks while they were fed food B. Eight cats diagnosed with hyperthyroidism were given 2.5 mg methimazole orally once a day for six weeks while they were fed a commercially available cat food. The thyroid hormone profiles and serum chemistries of all cats were measured at zero, two, four, and six weeks."}, "[3]": {"conditions": "cats diagnosed with hyperthyroidism, six weeks, methimazole 2.5 mg orally once a day where given"}}}
{"smiles": "Cn1cc[nH]c1=S", "note": "[Methimazole, methimazole]", "values": [{"measurement": "total T4 concentration relative to the normal total T4 concentration range", "setting": "[1]; after six weeks", "result": "did not reach the normal total T4 concentration range"}, {"measurement": "Change in Serum Total T4 Levels", "setting": "[1]; [3]", "result": -20.3, "unit": "nmol/L"}, {"measurement": "serum creatinine concentration relative to the normal creatinine concentration range", "setting": "[2]; after six weeks, normal range 0.8-1.8 mg/dL", "result": "a bit higher than the 0.8-1.8 mg/dL normal creatinine concentration range"}, {"measurement": "Change in Serum Creatinine Levels", "setting": "[2]; [3]", "result": "+0.46 mg/dL"}]}
